Assay [1] has as its target T1, M4 (h) (antagonist radioligand) (Homo sapiens, UniProt P08173).
T1 construct: purchased Eurofins (contract assay); host or cells: cell membrane homogenates
T1 sequence (P08173 1-479): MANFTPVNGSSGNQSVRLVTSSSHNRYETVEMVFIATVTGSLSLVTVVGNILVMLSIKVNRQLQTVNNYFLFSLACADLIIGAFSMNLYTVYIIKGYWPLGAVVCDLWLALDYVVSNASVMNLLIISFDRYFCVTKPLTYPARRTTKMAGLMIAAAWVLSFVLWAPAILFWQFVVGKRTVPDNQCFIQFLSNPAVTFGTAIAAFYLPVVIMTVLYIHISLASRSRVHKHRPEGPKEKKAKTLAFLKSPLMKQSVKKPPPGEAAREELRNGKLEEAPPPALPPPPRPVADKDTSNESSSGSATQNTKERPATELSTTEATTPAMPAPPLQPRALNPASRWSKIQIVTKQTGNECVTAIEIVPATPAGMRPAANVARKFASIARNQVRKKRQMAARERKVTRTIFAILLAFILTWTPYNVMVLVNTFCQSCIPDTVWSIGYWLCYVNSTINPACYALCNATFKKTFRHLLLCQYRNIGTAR
Description: radioligand displacement assay, M4. The format is binding. How it is done:
4.2.3.6. Radioligand Binding Assay (Supplemental Figure S3)
These assays were run by Eurofins under contract to LifeArc FR095-0011887. A representative protocol describing the human histamine H2 receptor (antagonist radioligand) assay is shown below.12 Cell membrane homogenates (24 µg protein) are incubated for 120 min at 22°C with 0.075 nM [125I]APT in the absence or presence of the test compound in a buffer containing 50 mM Na2HPO4/KH2PO4 (pH […]
7.4) and 0.05% BSA. […] Following

The next assay addresses T2, LmjIPCS (Leishmania major, UniProt E9AFX2).
T2 construct: made in house
Description: HPTLC based LmjIPCS assay. It counts as biochemical. As to conditions: microsomes treated with 5 mM compound; NBD-C6-ceramide and PI. From the text:
CF was originally selected from a screen for inhibitors of the sphingolipid synthase, (L. majIPCS) and to verify that this new analogue retained this profile we applied the same assays as used before. […] To support inhibition of the IPCS, the HPTLC biochemical assay described by Mina et al.[16] was employed. In this, using a microsomal preparation of the L. majIPCS, a fluorescent substrate NBD-C6-ceramide was combined with PI and the two drugs. Following the reaction, the product, NBD-C6-IPC, and residual starting material were separated via HPTLC and analysed by fluorescence spectroscopy.
°C and 5% CO2. Aliquots of resazurin solution (10 μL) were then added and the cells were incubated at 37 °C and 5% CO2 for 4 h. Cell-viability measurement was carried out using a fluorescence plate reader. […]
days. Infected ear thicknesses were measured once or twice a week with a caliper gauge, and the lesion sizes were expressed as the difference between the thickness of infected and non-infected ear. On day 41 animals were sacrificed and the fluorescence measured (485 - 528 nm) and parasite load quantified using a limiting dilution assay (LDA).
Data on lesion progression were analysed for statistical significance by using the Dunnett test as part of the one-way ANOVA (GraphPad Prism 8 software). […]
Product quantification was carried out using a fluorescence plate reader […]

The subject of assay [2] is L. major PX promastigotes. Nature of the assay: on-target growth inhibition, add-back cell line (PX). It counts as cell-based, Leishmania major.
The subject of assay [3] is L. major promastigotes (FV1) WT. Nature of the assay: anti-promastigote assay, L. major (resazurin). It counts as cell-based. As to conditions: Leishmania major; promastigote parasites (Table 1); read-out: L.mj EC50. The protocol:
4.2.3.1. Anti-promastigote assays
L. major promastigotes (FV1) WT, PX and Δ LCB2 in Schneider’s insect medium (100 μL at 1 × 106 mL−1) were incubated in 96-well plates with compounds in triplicate (amphotericin B and cycloheximide were used as positive controls, and untreated parasites with 1% DMSO as a negative control) at 26 °C for 48 h.
Resazurin Solution (10 μL) was then added and the plate incubated at 26 °C for 4 h prior to measurement using a fluorescence plate reader (555 - 585 nm). EC50 values were calculated using sigmoidal regression analysis (GraphPad Prism). […]
well-1 in a 24-well plate with round cover slips and incubated for 24 h at 37 °C and 5% CO2. […]
(Resazurin is reduced to fluorescent resorufin, in cell work by metabolically active cells.)

The subject of assay [4] is L. major ΔLCB2 promastigotes. The format is cell-based, Leishmania major. As to conditions: EC50 WT versus ΔLCB2 L. major promastigotes.

Some results are limits rather than exact numbers.

By EC50 is commonly meant the concentration that produces a half-maximal response.

T2 sequence (E9AFX2 whole entry): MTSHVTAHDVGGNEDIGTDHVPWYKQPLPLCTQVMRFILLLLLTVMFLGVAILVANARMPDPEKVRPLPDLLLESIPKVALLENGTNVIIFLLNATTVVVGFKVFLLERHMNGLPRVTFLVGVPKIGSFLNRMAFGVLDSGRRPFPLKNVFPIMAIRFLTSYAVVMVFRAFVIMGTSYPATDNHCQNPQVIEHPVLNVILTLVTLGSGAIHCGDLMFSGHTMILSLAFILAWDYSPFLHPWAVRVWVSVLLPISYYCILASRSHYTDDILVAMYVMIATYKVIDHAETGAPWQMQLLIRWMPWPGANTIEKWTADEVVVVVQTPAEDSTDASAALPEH

For `C[C@H]1CCCN1CCCO[C@H](c1ccccc1)c1ccc(Cl)cc1` [38l], the “effective binding, radioligand displacement, M4” value in assay [1] is listed as > 40%. In addition, the “NBD-C6-IPC product formation (HPTLC)” value at LmjIPCS is on record as “No product was observed”. Further, the “sensitivity in the add-back cell line (PX)” value in assay [2] is recorded as “Sensitivity was restored”. Moreover, the EC50 in assay [3] was determined as 30 nM. The “times more active against WT than mutant ΔLCB2 promastigotes” value in assay [4] is “approximately 3 times”.

Values taken from PMC11862611 (RSC Medicinal Chemistry, 2025).
